This test deals with T1, 5-HT3 -receptor (Rattus norvegicus, UniProt P35563).
T1 construct: Transient reduction in heart rate and blood pressure induced by intravenous administration of serotonin; from tissue
T1 sequence (P35563 24-483): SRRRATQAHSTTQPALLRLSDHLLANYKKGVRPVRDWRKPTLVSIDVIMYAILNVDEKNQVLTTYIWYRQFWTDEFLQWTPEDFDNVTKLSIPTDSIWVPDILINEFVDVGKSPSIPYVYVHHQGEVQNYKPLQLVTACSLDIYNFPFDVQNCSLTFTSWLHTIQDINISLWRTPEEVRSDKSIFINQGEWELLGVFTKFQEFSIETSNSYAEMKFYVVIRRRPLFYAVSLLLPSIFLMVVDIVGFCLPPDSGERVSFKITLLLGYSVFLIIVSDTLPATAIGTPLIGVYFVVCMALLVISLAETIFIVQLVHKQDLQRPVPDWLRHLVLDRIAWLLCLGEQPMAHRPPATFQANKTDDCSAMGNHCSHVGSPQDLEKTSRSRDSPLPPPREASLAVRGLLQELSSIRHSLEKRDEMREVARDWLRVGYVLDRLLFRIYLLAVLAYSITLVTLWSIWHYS
As to the kind of experiment: Antagonism against 5-HT3-receptor: serotonin-induced Bezold-Jarish (BJ) reflex in anesthetized rats. Type of test: in vivo. The conditions noted are these: iv, 10 min, i.v., urethane-anesthetized Wistar male rats, given 10 minutes before serotonin, read-out: BJ Reflex Inhibitory Activity ED50. As to the method:
Nine-week-old Wistar male rats were anesthetized by intraperitoneal administration of 1 g/kg of urethane, and blood pressure and heart rate were measured under artificial respiration. Transient reduction in heart rate and blood pressure induced by intravenous administration of serotonin or 2-methylserotonin which is a selective agonist of 5-HT3 was taken as an index of the reaction via 5-HT3 receptor [Bezold-Jarish reflex; Paintal, A. S., Pysiolo. Rev., Vol. 53, p. 159 (1973)].
Inhibitory activity of the compound of the present invention on serotonin-induced Bezold-Jarish (BJ) reflex in rats is shown in Table 1 below.

Consider `O=C(C1CCc2nc[nH]c2C1)N1CCc2ccccc21.O=C(O)/C=C/C(=O)O` (centres unmarked) [Example 2, 5-[(2,3-Dihydroindol-1-yl)carbonyl]-4,5,6,7-tetrahydrobenzimidazole fumarate], for which the ED50 is 0.29 µg/kg.
As to `O=C(C1CCc2nc[nH]c2C1)n1c(=O)[nH]c2ccccc21` (centres unmarked) [Example 9, 1-[(4,5,6,7-tetrahydrobenzimidazol-5-yl)carbonyl]-2,3-dihydrobenzimidazol-2-one], the ED50 turned out to be 0.8 µg/kg.

One may read the ED50 as the dose at which the effect has come halfway, by size or by number of responders.

The values above are taken from US5344927A, “Tetrahydrobenzimidazole derivatives and pharmaceutical compositions containing same” (Yamanouchi Pharmaceutical Co., Ltd., priority 1989, dated 1994).
